Three molecules from EPA's ToxValDB 9.5 can be followed below.

This series concerns Rattus norvegicus.
Where [1] appears, read: short-term, duration: 2 weeks, inhalation, F, Wistar, generation: P0, P0: Lung: Lung Weight, Relative.
Setting [2] is: short-term, duration: 2 weeks, inhalation, M, Wistar, generation: P0, P0: Lung: Lung Weight, Relative.
Where [3] appears, read: short-term, duration: 28 days, inhalation, F, Wistar, Teeth: Incisors, Discolored.
[4] abbreviates: short-term, duration: 28 days, inhalation, M, Wistar, Teeth: Incisors, Discolored.
[5] abbreviates: short-term, duration: 28 days, oral, gavage, F, Wistar, Blood: Red Cell Distribution Width (RDW) + Liver: Total Cholesterol (CHOL).
[6] abbreviates: short-term, duration: 28 days, oral, gavage, M, Wistar, Blood: Hemoglobin (HGB) + Liver: Total Bilirubin (TBILI).
The mark [7] stands for this setting: developmental, duration: 24 days, oral, gavage, M/F, Sprague-Dawley, generation: F1, F1: Whole Body: Pup Weight per Litter, PND1.
The mark [8] stands for this setting: reproduction developmental, duration: 24 days, oral, gavage, F, Sprague-Dawley, generation: P0, P0: Whole Body: Clinical Signs.
The mark [9] stands for this setting: reproduction developmental, duration: 24 days, oral, gavage, F, Sprague-Dawley, generation: P0, P0: Whole Body: Feed Consumption, Absolute + P0: Whole Body: Maternal Body Weight Change + P0: Whole Body: Mortality + P0: Whole Body: No. ….
The mark [10] stands for this setting: short-term, duration: 28 days, oral, gavage, F, Wistar, Adrenal: Adrenal Gland Weight, Absolute + Adrenal: Adrenal Gland Weight, Relative + Kidney: Creatinine (CREAT) + Multi-Organ: Calcium (CA).
Where [11] appears, read: short-term, duration: 28 days, oral, gavage, M, Wistar, Blood: Hematocrit (HCT) + Blood: Hemoglobin (HGB) + Kidney: Urea + Liver: Alkaline Phosphatase (ALP) + Liver: Liver, Enlarged + Multi-Organ….
The mark [12] stands for this setting: short-term, duration: 28 days, oral, gavage, M, Wistar, Liver: Liver Weight, Absolute + Multi-Organ: Glucose (GLU) + Multi-Organ: Potassium (K).
Where [13] appears, read: subchronic, duration: 90 days, oral, gavage, F, Sprague-Dawley, Kidney: Calcium (CA) Excretion + Multi-Organ: White Blood Cell (WBC).
Setting [14] is: subchronic, duration: 90 days, oral, gavage, M, Sprague-Dawley, Blood: Hematocrit (HCT) + Blood: Hemoglobin (HGB).
Where [15] appears, read: subchronic, duration: 90 days, oral, gavage, M, Sprague-Dawley, Blood: Red Blood Cell (RBC) + Liver: Aspartate Aminotransferase (AST) + Multi-Organ: Prothrombin Time (PT).
Setting [16] is: short-term, duration: 28 days, oral, gavage, M, Sprague-Dawley, Liver: Liver Weight, Relative.

SMILES strings stand for the structures. Several values for one entry are separate records, joined by “and”; a condition that tells them apart may be missing. Equal entries are not always repeated.

As to `F/C(=C(/F)C(F)(C(F)(F)F)C(F)(F)F)C(F)(F)F` [(E)-Perfluoro(4-methyl-2-pentene)], the LOAEL is, setting by setting: (acute, duration: 4 hours, inhalation, F, Wistar, Central Nervous System: Hunched Posture + Central Nervous System: Ruffled Fur + Lung: Lung, Non-Neoplastic Lesions + Lung: Tachypnea + Whole…) 21.7 mg/L; (acute, duration: 4 hours, inhalation, M, Wistar, Central Nervous System: Frightened behavior + Central Nervous System: Ruffled Fur + Central Nervous System: Tremor + Lung: Lung, Non-…) 21.7 mg/L; (short-term, duration: 2 weeks, inhalation, F, Wistar, generation: P0, P0: Kidney: Kidney, Faded + P0: Thymus: Thymus, Small + P0: Whole Body: Body Weight Change + P0: Whole Body: Body Weight, Absolute + P0: …) 9200 mg/m3; under setting [1], 4290 mg/m3 and 4300 mg/m3; (short-term, duration: 2 weeks, inhalation, M, Wistar, generation: P0, P0: Epididymis: Epididymis, Small + P0: Kidney: Kidney, Faded + P0: Prostate: Prostate, Small + P0: Seminal Vesicle: Seminal Vesicle, Small…) 9200 mg/m3; under setting [2], 4290 mg/m3 and 4300 mg/m3. For the same molecule, the LOAEL reads like this: under setting [3], 3070 mg/m3; under setting [4], 3070 mg/m3; (short-term, duration: 28 days, oral, gavage, F, Wistar, Blood: Hematocrit (HCT) + Blood: Hemoglobin (HGB), Recovery + Blood: Mean Cell Volume (MCV) + Blood: Red Blood Cell (RBC) + Calcium (CA) + …) 450 mg/kg-day; (short-term, duration: 28 days, oral, gavage, F, Wistar, Blood: Hemoglobin (HGB) + Blood: Mean Cell Hemoglobin Concentration (MCHC) + Liver: Liver Weight, Absolute + Spleen: Spleen Weight, Absolute) 50 mg/kg-day; under setting [5], 150 mg/kg-day; (short-term, duration: 28 days, oral, gavage, M, Wistar, Blood: Hematocrit (HCT) + Blood: Mean Cell Hemoglobin Concentration (MCHC), Recovery + Blood: Mean Cell Volume (MCV) + Blood: Platelet Count…) 450 mg/kg-day. The LOAEL under setting [6] amounted to 150 mg/kg-day and the LOAEL (short-term, duration: 28 days, oral, gavage, M, Wistar, Blood: Mean Cell Hemoglobin (MCH) + Blood: Mean Cell Hemoglobin Concentration (MCHC) + Brain: Brain Weight, Absolute + Testis: Testis Weight…) is 50 mg/kg-day. The no-observed-adverse-effect level (NOAEL) (developmental, duration: 2 weeks, inhalation, M/F, Wistar, generation: F1, F1: Whole Body: Clinical Signs + F1: Whole Body: Fetal Alterations, Total + F1: Whole Body: Male Pups per Pups Sexed + F1: Whole Body: Pup …) was 4290 mg/m3 and 4300 mg/m3; the NOAEL (reproduction developmental, duration: 2 weeks, inhalation, F, Wistar, generation: P0, P0: Ovary: Corpora Lutea + P0: Uterus: Implantation + P0: Whole Body: Dams with Stillborn Pups + P0: Whole Body: Days of Cohabitation + P0: …) was 4290 mg/m3 and 4300 mg/m3; the NOAEL (reproduction developmental, duration: 2 weeks, inhalation, M, Wistar, generation: P0, P0: Whole Body: Days of Cohabitation + P0: Whole Body: Fertility Index + P0: Whole Body: Percent Mating) was 4290 mg/m3 and 4300 mg/m3; the NOAEL (short-term, duration: 2 weeks, inhalation, F, Wistar, generation: P0, P0: Kidney: Kidney, Faded + P0: Liver: Liver Weight, Absolute + P0: Liver: Liver Weight, Relative + P0: Lung: Lung Weight, Absolute + P0: …) is 4290 mg/m3 and 4300 mg/m3; the NOAEL under setting [1] stood at 1840 mg/m3; the NOAEL (short-term, duration: 2 weeks, inhalation, M, Wistar, generation: P0, P0: Epididymis: Epididymis Weight, Absolute + P0: Epididymis: Epididymis Weight, Relative + P0: Epididymis: Epididymis, Duct, Exfoliated …) is 4290 mg/m3 and 4300 mg/m3. Further, the NOAEL by setting is: under setting [2], 1840 mg/m3; (short-term, duration: 2 weeks, inhalation, M, Wistar, generation: P0, P0: Whole Body: Feed Consumption, Absolute) 9200 mg/m3; (short-term, duration: 28 days, inhalation, F, Wistar, Adrenal: Adrenal Gland Weight, Absolute + Blood: Albumin/Globulin (A/G) Ratio + Blood: Hemoglobin (HGB) + Blood: Mean Cell Volume (MCV) + …) 3070 mg/m3; under setting [3], 1230 mg/m3 and 1220 mg/m3; (short-term, duration: 28 days, inhalation, M, Wistar, Adrenal: Adrenal Gland Weight, Absolute + Blood: Albumin/Globulin (A/G) Ratio + Blood: Hemoglobin (HGB) + Blood: Mean Cell Volume (MCV) + …) 3070 mg/m3; under setting [4], 1230 mg/m3 and 1220 mg/m3. Further, the NOAEL by setting is: (short-term, duration: 28 days, oral, gavage, F, Wistar, Adrenal: Adrenal Gland Histopathology + Blood: Mean Cell Hemoglobin (MCH) + Blood: Platelet Count (PLT) + Bone: Femur Histopathology + Bone…) 450 mg/kg-day; (short-term, duration: 28 days, oral, gavage, F, Wistar, Blood: Hematocrit (HCT) + Blood: Mean Cell Volume (MCV) + Blood: Red Blood Cell (RBC) + Calcium (CA) + Chloride (CL) + Gamma-glutamyl …) 150 mg/kg-day; under setting [5], 50 mg/kg-day; (short-term, duration: 28 days, oral, gavage, M, Wistar, Adrenal: Adrenal Gland Histopathology + Bone: Femur Histopathology + Bone: Sternum Histopathology + Brain: Brain Weight, Absolute, Recovery…) 450 mg/kg-day; (short-term, duration: 28 days, oral, gavage, M, Wistar, Blood: Hematocrit (HCT) + Blood: Mean Cell Volume (MCV) + Blood: Platelet Count (PLT) + Blood: Red Blood Cell (RBC) + Blood: Red Cell …) 150 mg/kg-day; under setting [6], 50 mg/kg-day.
On to `O=C([O-])C(F)(F)C(F)OC(F)(F)C(F)(F)C(F)(F)OC(F)(F)F.[NH4+]` (centres undefined) [Ammonium 4,8-dioxa-3H-perfluorononanoate], for which the NOAEL (developmental, duration: 24 days, oral, gavage, M/F, Sprague-Dawley, generation: F1, F1: Whole Body: Dams with Stillborn Pups + F1: Whole Body: Delivered Litters + F1: Whole Body: Live Pups Born + F1: Whole Body: Mean Pups …) is 270 mg/kg-day; the no observed adverse effect level (NOAEL) under setting [7] is 30 mg/kg-day; the NOAEL (developmental, duration: 24 days, oral, gavage, M/F, Sprague-Dawley, generation: F1, F1: Whole Body: Pup Weight per Litter, PND4 + F1: Whole Body: Pup Weight per Litter, PND6 + F1: Whole Body: Survival, PND1 + F1: Whole Body…) worked out at 90 mg/kg-day; the NOAEL (reproduction developmental, duration: 24 days, oral, gavage, F, Sprague-Dawley, generation: P0, P0: Uterus: Resorptions, Early + P0: Whole Body: Feed Consumption, Absolute + P0: Whole Body: Length of Gestation + P0: Whole Body: Length …) was 270 mg/kg-day; the NOAEL under setting [8] worked out at 30 mg/kg-day; the NOAEL under setting [9] was found to be 90 mg/kg-day. Besides, the NOAEL is 30 mg/kg-day under setting [10]; 100 mg/kg-day (short-term, duration: 28 days, oral, gavage, F, Wistar, Blood: Activated Partial Thromboplastin Time (APTT) + Blood: Albumin/Globulin (A/G) Ratio + Blood: Hematocrit (HCT) + Blood: Hemoglobin (HGB…); 100 mg/kg-day (short-term, duration: 28 days, oral, gavage, M, Wistar, Adrenal: Adrenal Gland Weight, Absolute + Adrenal: Adrenal Gland Weight, Relative + Blood: Activated Partial Thromboplastin Time (APTT) + …); 30 mg/kg-day under setting [11]; 10 mg/kg-day under setting [12]; 100 mg/kg-day (subchronic, duration: 90 days, oral, gavage, F, Sprague-Dawley, Adrenal: Adrenal Gland Weight, Absolute + Adrenal: Adrenal Gland Weight, Relative + Blood: Activated Partial Thromboplastin Time (APTT) + …). The NOAEL under setting [13] came to 30 mg/kg-day; the NOAEL (subchronic, duration: 90 days, oral, gavage, M, Sprague-Dawley, Adrenal: Adrenal Gland Weight, Absolute + Adrenal: Adrenal Gland Weight, Relative + Blood: Activated Partial Thromboplastin Time (APTT) + …) worked out at 10 mg/kg-day; the NOAEL under setting [14] came out at 1 mg/kg-day; the NOAEL under setting [15] was 3 mg/kg-day. Besides, the LOAEL was 270 mg/kg-day (developmental, duration: 24 days, oral, gavage, M/F, Sprague-Dawley, generation: F1, F1: Whole Body: No Milk in Stomach + F1: Whole Body: Pup Weight per Litter, PND4 + F1: Whole Body: Pup Weight per Litter, PND6 + F1: Whole …); 90 mg/kg-day under setting [7]; 90 mg/kg-day under setting [8]; 270 mg/kg-day under setting [9]; 100 mg/kg-day under setting [10]; 100 mg/kg-day under setting [11]. Moreover, the LOAEL stood at 10 mg/kg-day (short-term, duration: 28 days, oral, gavage, M, Wistar, Liver: Hepatocellular Hypertrophy + Liver: Liver Weight, Relative + Liver: Total Bilirubin (TBILI)); 30 mg/kg-day under setting [12]; 100 mg/kg-day under setting [13]; 3 mg/kg-day under setting [14]; 10 mg/kg-day under setting [15].
For the molecule `FC(F)C(F)(F)C(F)(F)C(F)(F)C(F)(F)C(F)(F)F` [1H-Perfluorohexane], the NOAEL runs as follows: (developmental, duration: 20 days, parental, M/F, Wistar, generation: F1, F1: Thyroid: Thyroxine (T4) + F1: Trunk: Anogenital Distance + F1: Whole Body: Body Weight, Fetal + F1: Whole Body: Clinical Observations + …) 1000 mg/kg-day; (reproduction developmental, duration: 20 days, parental, M, Wistar, generation: F1, F1: Trunk: Areola/Nipple Retention) 1000 mg/kg-day; (reproduction developmental, duration: 29 days, oral, gavage, M, Wistar, generation: P0, P0: Epididymis: Epididymis Weight, Absolute + P0: Prostate: Prostate Weight, Absolute + P0: Seminal Vesicle: Seminal Vesicles Weight (w/o …) 1000 mg/kg-day; (reproduction developmental, duration: 29 days, oral, gavage, M, Wistar, generation: P0, P0: Peripheral Nervous System: Functional Observational Battery Tests + P0: Thyroid: Thyroid Gland Weight, Absolute + P0: Thyroid: Thyroxine…) 1000 mg/kg-day; (reproduction developmental, duration: 64 days, oral, gavage, F, Wistar, generation: P0, P0: Heart: Heart Gross Pathology + P0: Heart: Heart Histopathology + P0: Kidney: Kidney Gross Pathology + P0: Kidney: Kidney Histopathology…) 1000 mg/kg-day; (reproduction developmental, duration: 64 days, oral, gavage, F, Wistar, generation: P0, P0: Testis: Ovary Histopathology + P0: Uterus: Estrous Cyclicity + P0: Uterus: Implantation + P0: Whole Body: Conception Index + P0: Whole …) 1000 mg/kg-day. The NOAEL by setting is: (short-term, duration: 28 days, oral, gavage, F, Sprague-Dawley, Adrenal: Adrenal Gland Histopathology + Adrenal: Adrenal Gland Weight, Relative + Blood: Hematology, Unspecified + Brain: Brain Weight, …) 1000 mg/kg-day; (short-term, duration: 28 days, oral, gavage, M, Sprague-Dawley, Adrenal: Adrenal Gland Histopathology + Adrenal: Adrenal Gland Weight + Blood: Hematology, Unspecified + Brain: Brain Weight, Relative + …) 1000 mg/kg-day; under setting [16], 200 mg/kg-day. The molecule also showed an LOAEL under setting [16] of 1000 mg/kg-day.

In general, LOAEL refers to the lowest dose or exposure tested at which an adverse effect was seen. As a reminder, the NOAEL is the highest tested level that showed no adverse finding.
